Data set [1] has as its system isolated aorta sections. In words: Isolated aorta section (modified Furchgott), contraction in noradrenalin. As to conditions: in words. The arrangement: species or system rabbit. As for the experimental part:
(§1) (1) Isolated vein and aorta sections
(§2) The tests were carried out on isolated vein and aorta sections from rabbits in accordance with the modified method of Furchgott et al (J. Pharmacol, exp. Ther. 108 (1953), page 129). The contraction of the vein section in adrenalin and of the aorta section in noradrenalin, after administration of 10^-6 g/ml of the test compound was defined to have the base value of 100.

The test system of data set [2] is isolated portal vein. In words: Isolated rat's portal vein (Berti), increase in tonus. The protocol: (2) Isolated rat's portal vein
The tests on the rat's portal vein, an organ with its own rhythm, were performed according to the method of Berti et al (Arch. int. Pharmacodyn. 184 (1970), page 328). In Table 4, the increase in tonus at various adrenalin concentrations is given in milligrams. As a comparison, the values for the known substance heptaminol (=6-amino-2-methylheptane-2-ol) are also given.

Data set [3] concerns perfused rabbit ear. As to the kind of experiment: Blood-flow change in perfused isolated rabbit ear, vaso-dilator activity (Ringer-Norfenefrin solution). The protocol: (3) Blood-flow change in an isolated rabbit ear
The tests were carried out according to Krakow-Pissemski (Pflugers Archiv 151 (1913), page 583 and 156 (1914), page 426). In Table 5a the estimated values of the vaso-constrictor activity in Ringer solutions of varying concentrations are given and in Table 5b values for vasodilatory activity in Ringer-Norfenefrin solutions of varying concentrations are given. As a comparison, the values obtained with the known preparation aescin sodium are given.

The subject of data set [4] is permeability of the capillaries. As to the kind of experiment: Histamine rash test (modified Halpern), capillary permeability. It is filed as in vivo. As to conditions: 30 minutes before histamine. As for the experimental part: The test according to Halpern (Presse medicale 65 (1949), page 949) was used in modified form. The suppressive effect of the compounds according to the invention on the permeability of the capillaries was tested. The blue coloration induced by intravenous administration of trypan blue at two intracutaneous histamine injection points per animal, (trypan blue administered 2 minutes before the histamine), was estimated according to the following scale of values:
indications of blue coloration
clear blue coloration =4
stong blue coloration =6
The preceding evaluation was made from the combined effect at the two injection points.
The test substances were administered i.p. 30 minutes before the histamine injection.

The nature of data set [5]: Toxicity in the mouse (Litchfield and Wilcoxon). As to conditions: mouse, in vivo. It is filed as in vivo. The protocol:
(§3) (6) Toxicity in the mouse
(§4) Toxicity was determined according to Litchfield and Wilcoxon (J. Pharmacol. exp. Ther. 97 (1949), page 399) in the mouse. In comparison, the values with the known substance aescin sodium salt were determined. Comparative tests with 0.1% solution, of venous and optical compatibility on the rabbit yielded similar results.

Data set [6] deals with isolated guinea-pig heart. In words: Relative coronary blood-flow change in isolated guinea-pig heart (Langendorff). As for the experimental part:
(4) Relative coronary blood-flow change in an isolated guinea-pig heart.
The tests were carried out according to the method of Langendorff (Pflugers Archiv. 61 (1895), page 219).
In Table 5, the change in coronary blood flow after administration of various quantities of the test substance is compared with that after administration of the known compounds heptaminol and Aescin sodium salt.

Data set [7] concerns mouse. As to the kind of experiment: Toxicity in the mouse (Litchfield and Wilcoxon). It is filed as in vivo. As for the experimental part: as §3, §4
Data set [8] concerns carrageenin oedema in the rat paw. As to the kind of experiment: Suppression of carrageenin oedema in the rat paw (Siegmund). It counts as in vivo. To be noted: 3 h p.a. The protocol: (7) Suppression of carrageenin oedema in the rat paw
The inflammation-reducing and anti-oedematous effects on carrageenin and serotonin oedemas in the rat paw were studied according to Siegmund et al (Proc. Soc. exp. Biol. Med. 95 (1957), page 729). The values are given as percentages, based on the values obtained in control tests using a dummy procedure. In this way, the antiphlogistic activity of the substances according to the invention was tested.

Data set [9] has as its system mouse. As to the kind of experiment: Hot-plate test (Chen and Beckman). It counts as in vivo. The protocol:
This test was performed on the mouse, according to Chen and Beckman (see Science 113 (1951), page 631). 50 mg/kg of the compound No. 2 (cf. formula sheet) which has been administered per os increase the reaction time of the animals by 70%.

In data set [10] the test system is isolated vein sections. In words: Isolated vein section (modified Furchgott), contraction in adrenalin. The arrangement: species or system rabbit. To be noted: in words. As for the experimental part: as §1, §2
Data set [11] concerns writhing movements in the mouse. In words: Writhing test (Winter). It counts as in vivo. The source says: The analgesic activity of the compounds according to the invention were studied by the method of Winter et al (Proc. Soc. exp. Biol. Med, 111 (1962), page 544), in which the suppression of writhing movements in the mouse was observed.
Where [12] appears, read: 100 μg (first figure where two are given).

Structures can show the parent of a compound that is named as a salt.

Regarding `CCC(C)C(C)NCc1c(C)cc(C)cc1C` (centres unmarked) [Serial No. 27], the “Vasotonic activity compared with aescin sodium (aorta, Table 3)” value in data set [1] was “stronger vasotonic activity than the comparison substance aescin sodium”. The “Increase in tonus, isolated rat's portal vein” value is reported as “+250 milligrams” in data set [2] (10^-4 g/ml), “+19 milligrams” in data set [2] (10^-5 g/ml) and -9 milligrams in data set [2] (10^-6 g/ml). Also, the “Relative change in blood flow, vaso-dilator activity” value (“Relative change in blood flow” below) in data set [3] (3 × 10^-5 g/ml) is listed as “+12”; in data set [3] (10^-6 g/ml), “+4”. For the same compound, the “Histamine rash test, blue coloration score (0 = none, 2 = indications, 4 = clear, 6 = strong)” value (shortened to “Histamine rash test”) in data set [4] (1.0 mg/kg i.p.) is 3.6; in data set [4] (3.0 mg/kg i.p.) it was 1.9. Moreover, the LD50 in [5] (ip) was 100 to 250 mg/kg; in data set [5] (po), 2400 mg/kg.
For the compound `CCCCCC(C)NCc1c(C)cc(C)cc1C` (single isomer, unassigned) [compound 4], the “Relative change in blood flow” value in data set [3] (3 × 10^-5 g/ml) is reported as “+31”; in [3] (10^-5 g/ml), “+104”; in data set [3] (10^-6 g/ml), “+40”; in data set [3] (10^-7 g/ml), “+4”. For the same compound, the “Relative change in coronary blood flow” value in data set [6] (setting [12]) is given as “+125”. Further, the figures for the “Histamine rash test” value in [4] (1.0 mg/kg i.p.) and in data set [4] (3.0 mg/kg i.p.) were 3.1 and 1.7, respectively. Besides, the “Toxicity in the mouse” value in [7] (i.p.) was 50 to 100 mg/kg; in data set [7] (i.v.) it was 12,4 mg/kg. In addition, the “Suppression of carrageenin oedema in the paw (antiphlogistic activity)” value (shortened to “Suppression … (antiphlogistic activity)”) in [8] (100 mg/kg p.o.) amounted to 14%.
With `Cc1c(N(C)C)c(=O)n(-c2ccccc2)n1C` [aminophenazone, reference compound], in [9] (Mus musculus, comparison substance, read-out: Effective dose of 50% (ED 50), hot-plate test), the ED50 came to 84 mg/kg.
Take `CCCCCCC(C)NCc1c(C)cc(C)cc1C` (centres unmarked) [Serial No. 26]: the “Vasotonic activity compared with aescin sodium (vein, Table 2)” value in [10] is “stronger vasotonic activity than the comparison substance aescin sodium”. For the same compound, the “Relative change in blood flow” value in [3] (10^-5 g/ml) is recorded as “+58”; in [3] (10^-6 g/ml), “+29”; in data set [3] (10^-7 g/ml), “+7”. Besides, the “Relative change in coronary blood flow” value in [6] (10 μg (first figure where two are given)) is recorded as “+28”; in [6] (30 μg (first figure where two are given)) it was “+57”. In addition, the entries for the “Histamine rash test” value in [4] (1.0 mg/kg i.p.) and in [4] (3.0 mg/kg i.p.) were 1.8 and 1.2, respectively. The compound further showed an LD50 in data set [5] (ip) of 50 to 100 mg/kg. Besides, the “Suppression … (antiphlogistic activity)” value in data set [8] (100 mg/kg p.o.) was determined as 39%. In addition, the “Suppression of writhing movements” value in data set [11] (50 mg/kg p.o.) was determined as 45%.
Take `CCCCC(C)NCc1c(C)cc(C)cc1C` (centres unmarked) [compound 25]: the “Relative change in blood flow” value in data set [3] (3 × 10^-6 g/ml) is on record as “+39”; in [3] (10^-4 g/ml), “+147”; in data set [3] (10^-5 g/ml), “+93”; in [3] (10^-6 g/ml), “+1”; in data set [3] (10^-7 g/ml), “+3”. For the same compound, the figures for the “Histamine rash test” value in [4] (3.0 mg/kg i.p.) and in data set [4] (10.0 mg/kg i.p.) were 1.3 and 1.4, respectively. Further, the median lethal dose (LD50) in data set [5] (ip) was 50 to 100 mg/kg. Moreover, in [11] (50 mg/kg p.o.), the “Suppression of writhing movements” value turned out to be 46%.
Regarding `CCCCCC(C)NCc1ccc(F)cc1` (centres unmarked) [compound 7], the “Relative change in blood flow” value in data set [3] (3 × 10^-5 g/ml) was “+34”. Besides, the LD50 in data set [5] (ip) was 100 to 250 mg/kg. The “Suppression … (antiphlogistic activity)” value in data set [8] (25 mg/kg p.o.) is on record as 53%; in [8] (63 mg/kg p.o.) it was 71%. The results for the “Suppression of writhing movements” value in [11] (40 mg/kg p.o.), in data set [11] (63 mg/kg p.o.) and in data set [11] (100 mg/kg p.o.) were 46%, 67% and 77%, respectively.
In the case of `CCCCCC(C)NCc1c(C)cc(C)cc1C` (centres unmarked) [Serial No. 2, 2-(2,4,6-Trimethylbenzyl)-aminoheptane hydrochloride], the “Increase in tonus, isolated rat's portal vein” value is recorded as “+185 milligrams” in data set [2] (10^-4 g/ml) and “+106 milligrams” in data set [2] (10^-5 g/ml). For the same compound, the “Relative change in blood flow” value is on record as “+112” in [3] (10^-4 g/ml), “+73” in data set [3] (10^-5 g/ml), “+31” in [3] (10^-6 g/ml) and “+3” in data set [3] (10^-7 g/ml). Also, the “Relative change in coronary blood flow” value in data set [6] (setting [12]) was “+120”. The “Histamine rash test” value was determined as 3.5 in data set [4] (0.1 mg/kg i.p.); 3.4 in data set [4] (0.3 mg/kg i.p.); 2.6 in [4] (1.0 mg/kg i.p.); 1.7 in data set [4] (3.0 mg/kg i.p.); 1.9 in data set [4] (10.0 mg/kg i.p.). Moreover, the LD50 worked out at 114 mg/kg in data set [5] (ip), 11.7 mg/kg in data set [5] (iv) and 940 mg/kg in data set [5] (po). The “Suppression … (antiphlogistic activity)” value in data set [8] (25 mg/kg p.o.) came out at 53%; in data set [8] (63 mg/kg p.o.), 52%; in [8] (100 mg/kg p.o.), 46%. The “Suppression of writhing movements” value in data set [11] (40 mg/kg p.o.) is on record as 32%; in data set [11] (50 mg/kg p.o.) it was 53%; in [11] (63 mg/kg p.o.), 51%; in data set [11] (100 mg/kg p.o.), 80%. The “Increase in reaction time of the animals” value in data set [9] (50 mg/kg per os) is on record as 70%.

The record behind these values is patent US4312861A, “Pharmaceutical compositions containing N-alkyl-N-(nuclearly-substituted) benzylamines having vasotonia-regulating activity” (Hoechst Aktiengesellschaft, priority 1974, dated 1982).
